Source: PMC6311682, “Design, Synthesis, and Biological Evaluation of 2-Nitroimidazopyrazin-one/-es with Antitubercular and Antiparasitic Activity” (Journal of Medicinal Chemistry, 2018)
Converted amounts (≈) assume the structure as drawn. “And” between values parts separate entries of the source, which are not always exact repeats. Equal values may be shown once. Read-outs that look alike come from different tables or passages of the source.

Assays:
[1] = system: M. tuberculosis (H37Rv); assay: M. tuberculosis H37Rv resazurin reduction microplate MIC assay, hypoxic conditions (0.1% oxygen); assay type: cell-based, Mycobacterium tuberculosis
[2] = system: M. tuberculosis (H37Rv); assay: M. tuberculosis H37Rv resazurin reduction microplate MIC assay, normoxic conditions; assay type: cell-based; settings: Mycobacterium tuberculosis, normoxia, read-out: antibacterial MIC M. tuberculosis normoxia
[3] = system: HEK293 cells; parameters: method as in Jarrad et al. 2; settings: ATCC CRL-1573; ref Jarrad et al. 2; read-out: cytotoxicity CC50 HEK 293; cited from earlier work
[4] = system: HepG2 cells; parameters: method as in Jarrad et al. 2; settings: ATCC HB-8065; ref Jarrad et al. 2; read-out: cytotoxicity CC50 HepG2; cited from earlier work
[5] = Kinetic solubility determination by LC-UV; settings: room temperature, 1% DMSO
[6] = system: L. donovani MHOM/IN/80/DD8 (ATCC50212); assay: L. donovani DD8 intracellular (THP-1) amastigote assay; assay type: cell-based; settings: Leishmania donovani
[7] = Broth microdilution MIC assay, ESKAPE pathogens; assay type: cell-based; settings: S. aureus, E. coli, K. pneumoniae, A. baumannii, P. aeruginosa; read-out: antibacterial MIC ESKAPE
[8] = system: ESKAPE pathogens S. aureus (ATCC 43300), E. coli (ATCC 25922), K. pneumoniae (ATCC 700603), A. baumannii (ATCC 19606), P. aeruginosa (ATCC 27853); assay: Broth microdilution MIC assay, ESKAPE pathogens; assay type: cell-based
[9] = system: E. histolytica (HM1:IMSS); assay: ATP-bioluminescence cell growth and survival assay, E. histolytica trophozoites; assay type: cell-based; settings: Entamoeba histolytica
[10] = system: T. b. brucei (strain 427, BS427); assay: 384-well resazurin viability assay, T. b. brucei bloodstream parasites; assay type: cell-based; settings: Trypanosoma brucei, BS427, n = 2; read-out: antiparasitic IC50 T. b. brucei
[11] = Mammalian cytotoxicity assay (resazurin), HEK293; settings: human, HEK293 cells
[12] = system: C. albicans (ATCC 90028) and C. neoformans (H99, ATCC 208821); assay: Broth microdilution MIC assay, fungi; assay type: cell-based; settings: for MIC: Candida albicans, read-out: antifungal MIC
[13] = system: C. difficile (630, ATCC BAA-1382); assay: Broth microdilution MIC assay, C. difficile; assay type: cell-based, Clostridium difficile; settings: 630 ATCC BAA-1382, median MIC; for MIC: Clostridioides difficile, ATCCBAA1382, read-out: antibacterial MIC C. difficile
[14] = Mammalian cytotoxicity assay (resazurin), HepG2; settings: human, HepG2 cells
[15] = PBS, pH 7.4, Solubility µM (PBS), PBS pH 7.4, 24 h
[16] = water, Solubility µM (H2O), 24 h
[17] = read-out: antiparasitic IC50 L. donovani
[18] = read-out: antiparasitic pIC50 ± SE L. donovani (converted)
[19] = read-out: antiparasitic IC50 E. histolytica
[20] = read-out: antiparasitic pIC50 ± SE E. histolytica (converted)

## NC(=O)c1ncc([N+](=O)[O-])[nH]1 [16a]
[1]; Mycobacterium tuberculosis, H37Rv, hypoxia (0.1% oxygen), read-out: antibacterial MIC M. tuberculosis hypoxia
  MIC: > 32 µg/mL
[2]
  MIC: > 32 µg/mL
[3]
  CC50: > 100 µM
[4]
  CC50: > 100 µM

## O=C(NCc1ccc(OC(F)(F)F)cc1)c1ncc([N+](=O)[O-])[nH]1 [16c]
[1]; at 32 μg/mL
  M. tuberculosis hypoxia % I: 75% and 60–75%
[3]
  CC50: 93 µM
[4]
  CC50: 104 µM

## O=C(NCc1ccc(F)cc1)c1ncc([N+](=O)[O-])[nH]1 [16e]
[3]
  CC50: > 100 µM
[4]
  CC50: > 100 µM

## O=C(NCc1cccc(OC(F)(F)F)c1)c1ncc([N+](=O)[O-])[nH]1 [16f]
[3]
  CC50: > 100 µM
[4]
  CC50: > 100 µM

## Cc1cccc(Cn2ccn3cc([N+](=O)[O-])nc3c2=O)c1 [17g, 7-(3-Methylbenzyl)-2-nitroimidazo[1,2-a]pyrazin-8(7H)-one]
[5]; [15]
  solubility at 24 h: < 5 µM
[5]; [16]
  solubility at 24 h: < 5 µM
[1]; @ 0.125–8 μg/mL
  M. tuberculosis hypoxia % I: 70–90% I @ 0.125–8 μg/mL
[6]; [17]
  IC50: > 20 µM
[6]; [18]
  IC50: > 20 µM
[7]
  MIC: > 32 µg/mL
[8]
  antibacterial MIC ESKAPE: >32 µg/mL
[9]; [19]
  IC50: > 50 µM
[9]; [20]
  IC50: > 50.1 µM

## O=c1c2nc([N+](=O)[O-])cn2ccn1Cc1cccc(C(F)(F)F)c1 [17h, 2-Nitro-7-(3-(trifluoromethyl)benzyl)imidazo[1,2-a]pyrazin-8(7H)-one]
[1]; @ 0.06–16 μg/mL
  M. tuberculosis hypoxia % I: 70–90% I @ 0.06–16 μg/mL
[6]; [17]
  IC50: > 40 µM
[6]; [18]
  IC50: > 39.8 µM
[7]
  MIC: > 32 µg/mL
[8]
  antibacterial MIC ESKAPE: >32 µg/mL
[9]; [19]
  IC50: > 50 µM
[9]; [20]
  IC50: > 50.1 µM

## CC(=O)OCCn1c(-c2ccccc2)cn2cc([N+](=O)[O-])nc2c1=O [24b, 2-(2-Nitro-8-oxo-6-phenylimidazo[1,2-a]pyrazin-7(8H)-yl)ethyl Acetate]
[5]; [15]
  solubility at 24 h: 187 ± 17.4 µM
[5]; [16]
  solubility at 24 h: 164 ± 7.57 µM
[10]
  IC50: < 1 µM
[6]; [17]
  IC50: > 80 µM
[6]; [18]
  IC50: > 79.4 µM
[7]
  MIC: > 32 µg/mL
[8]
  antibacterial MIC ESKAPE: >32 µg/mL
[11]
  CC50 at 24 h: > 100 µM
[12]
  antifungal MIC: >32 µg/mL
  MIC: > 32 µg/mL
[13]
  MIC: 64 µg/mL
[14]
  CC50 at 24 h: > 100 µM

## CC(=O)OCCn1c(C)cn2cc([N+](=O)[O-])nc2c1=O [25b, 2-(6-Methyl-2-nitro-8-oxoimidazo[1,2-a]pyrazin-7(8H)-yl)ethyl Acetate]
[5]; [15]
  solubility at 24 h: > 200 µM
[5]; [16]
  solubility at 24 h: > 200 µM
[10]
  IC50: < 1 µM
[6]; [17]
  IC50: > 80 µM
[6]; [18]
  IC50: > 79.4 µM
[7]
  MIC: > 32 µg/mL
[8]
  antibacterial MIC ESKAPE: >32 µg/mL
[11]
  CC50 at 24 h: > 100 µM
[12]
  antifungal MIC: >32 µg/mL
  MIC: > 32 µg/mL
[13]
  antibacterial MIC C. difficile: >64 µg/mL
  MIC: > 64 µg/mL
[14]
  CC50 at 24 h: > 100 µM

## Cc1cn2cc([N+](=O)[O-])nc2c(=O)n1CCO [25d, 7-(2-Hydroxyethyl)-6-methyl-2-nitroimidazo[1,2-a]pyrazin-8(7H)-one]
[5]; [15]
  solubility at 24 h: > 200 µM
[5]; [16]
  solubility at 24 h: > 200 µM
[6]; [17]
  IC50: > 80 µM
[6]; [18]
  IC50: > 79.4 µM
[7]
  MIC: > 32 µg/mL
[8]
  antibacterial MIC ESKAPE: >32 µg/mL
[11]
  CC50 at 24 h: > 100 µM
[12]
  antifungal MIC: >32 µg/mL
  MIC: > 32 µg/mL
[13]
  antibacterial MIC C. difficile: >64 µg/mL
  MIC: > 64 µg/mL
[14]
  CC50 at 24 h: > 100 µM

## Cc1cn2cc([N+](=O)[O-])nc2c(OCCO)n1 [25e, 2-((6-Methyl-2-nitroimidazo[1,2-a]pyrazin-8-yl)oxy)ethan-1-ol]
[5]; [15]
  solubility at 24 h: 193 ± 3.28 µM (≈ 46 µg/mL)
[5]; [16]
  solubility at 24 h: 196 ± 1.45 µM (≈ 46.7 µg/mL)
[6]; [17]
  IC50: > 80 µM
[6]; [18]
  IC50: > 79.4 µM
[7]
  MIC: > 32 µg/mL
[8]
  antibacterial MIC ESKAPE: >32 µg/mL
[11]
  CC50 at 24 h: > 100 µM
[12]
  antifungal MIC: >32 µg/mL
  MIC: > 32 µg/mL
[13]
  antibacterial MIC C. difficile: >64 µg/mL
  MIC: > 64 µg/mL
[14]
  CC50 at 24 h: > 100 µM

## Cc1[nH]c(=O)c2nc([N+](=O)[O-])cn2c1C [26a, 5,6-Dimethyl-2-nitroimidazo[1,2-a]pyrazin-8(7H)-one]
[5]; [15]
  solubility at 24 h: > 200 µM
[5]; [16]
  solubility at 24 h: > 200 µM
[6]; [17]
  IC50: > 80 µM
[6]; [18]
  IC50: > 79.4 µM
[7]
  MIC: > 32 µg/mL
[8]
  antibacterial MIC ESKAPE: >32 µg/mL
[11]
  CC50 at 24 h: > 100 µM
[12]
  antifungal MIC: >32 µg/mL
  MIC: > 32 µg/mL
[13]
  antibacterial MIC C. difficile: >64 µg/mL
  MIC: > 64 µg/mL
[14]
  CC50 at 24 h: > 100 µM

## Cc1nc(OCc2ccc(OC(F)(F)F)cc2)c2nc([N+](=O)[O-])cn2c1C [26c, 5,6-Dimethyl-2-nitro-8-((4-(trifluoromethoxy)benzyl)oxy)imidazo[1,2-a]pyrazine]
[5]; [15]
  solubility at 24 h: < 5 µM
[5]; [16]
  solubility at 24 h: < 5 µM
[6]; [17]
  IC50: > 80 µM
[6]; [18]
  IC50: > 79.4 µM
[7]
  MIC: > 32 µg/mL
[8]
  antibacterial MIC ESKAPE: >32 µg/mL
[11]
  CC50 at 24 h: > 100 µM
[12]
  antifungal MIC: >32 µg/mL
  MIC: > 32 µg/mL
[13]
  antibacterial MIC C. difficile: >64 µg/mL
  MIC: > 64 µg/mL
[14]
  CC50 at 24 h: > 100 µM

## NC(=O)c1nc([N+](=O)[O-])cn1Cc1ccc(OC(F)(F)F)cc1 [28c]
[3]
  CC50: > 100 µM
[4]
  CC50: > 100 µM

## NC(=O)c1nc([N+](=O)[O-])cn1Cc1ccc(F)cc1 [28e]
[3]
  CC50: > 100 µM
[4]
  CC50: > 100 µM

## NC(=O)c1nc([N+](=O)[O-])cn1Cc1cccc(OC(F)(F)F)c1 [28f]
[3]
  CC50: > 100 µM
[4]
  CC50: > 100 µM

## CNC(=O)c1nc([N+](=O)[O-])cn1Cc1ccc(OC(F)(F)F)cc1 [28g]
[3]
  CC50: > 100 µM
[4]
  CC50: > 100 µM

## CN(C)C(=O)c1nc([N+](=O)[O-])cn1Cc1ccc(OC(F)(F)F)cc1 [28h]
[3]
  CC50: > 100 µM
[4]
  CC50: > 100 µM

## CCOC(=O)c1nc([N+](=O)[O-])cn1Cc1ccc(OC(F)(F)F)cc1 [28i]
[3]
  CC50: > 100 µM
[4]
  CC50: > 100 µM

## O=C(NO)c1nc([N+](=O)[O-])cn1Cc1ccc(OC(F)(F)F)cc1 [28j]
[1]; at 32 μg/mL
  M. tuberculosis hypoxia % I: 60% and 60–75%
[3]
  CC50: 36 µM
[4]
  CC50: > 100 µM

## NNC(=O)c1nc([N+](=O)[O-])cn1Cc1ccc(OC(F)(F)F)cc1 [28k]
[3]
  CC50: > 100 µM
[4]
  CC50: > 100 µM

## Cc1ncc([N+](=O)[O-])n1CCO [metronidazole 1, metronidazole, reference compound]
[7]
  MIC: > 32 µg/mL
[3]
  CC50: > 100 µM
[4]
  CC50: > 100 µM
[11]
  CC50 at 24 h: > 100 µM
[12]
  MIC: > 32 µg/mL
[14]
  CC50 at 24 h: > 100 µM
